Where a SMILES comes first, the peptide text is derived from it.
Test system: recombinant CaM
Experiment: Photoaffinity labeling (PAL)-based competition assay
Type: binding
Conditions: photoprobe segment-C-Bpa 5 µM, CaM 5 µM, 200 µM Ca2+, SDS-PAGE and MALDI-TOF-MS; for suppression of photoadduct formation (in words): competitor up to 50-fold molar excess; for molar excess of competitor for complete suppression of photoadduct formation (full displacement of photoprobe): competitor 0–250 µM, 2 h RT
Description: Photoreactive peptides were synthesized by Fmoc chemistry using the amino acid derivative Fmoc-para-benzoylphenylalanine (Bpa, Novabiochem). Photoaffinity labeling (PAL)-based competition experiments with recombinant CaM were performed and analyzed as described previously. Briefly, CaM (5 µM) and segment-C-Bpa (5 µM) or segment-CS-Bpa (5 µM) were incubated in 50 mM HEPES (pH 7.2), 150 mM KCl, 5 mM DTT for 2 h at RT in the dark with (200 µM Ca^2+) or without (2 mM EGTA) calcium, and in the presence of increasing concentrations (0–250 μM) of competitor peptides. Following UV irradiation, photoadduct formation was visualized and quantified by SDS-PAGE and linear matrix-assisted laser desorption/ionization–time-of-flight–mass spectrometry (MALDI-TOF-MS).

Row | Compound | suppression of photoadduct formation (in words) | molar excess of competitor for complete suppression of photoadduct formation (full displacement of photoprobe) [fold molar excess]
1 | 703KLSLEQVCAETIYLNKCINNDKNVLREKRLRQKKLLQELV742 [Segment F723D, segment-C variant with F723 exchanged to aspartic acid] | not able to displace segment-C-Bpa at all | 
2 | 719 CINNFKNVLREKRLRQKKLLQELV 742 [segment-CS] | could not suppress photoadduct formation | > 50
3 | 719CINNFKNVLREKRLRQKKLLQELVQTASHLSVED742 [segment-CL] | could not suppress photoadduct formation | > 50
4 | CC[C@H](C)[C@H](NC(=O)[C@H](CS)NC(=O)[C@H](CCCCN)NC(=O)[C@H](CC(N)=O)NC(=O)[C@H](CC(C)C)NC(=O)[C@H](Cc1ccc(O)cc1)NC(=O)[C@@H](NC(=O)[C@@H](NC(=O)[C@H](CCC(=O)O)NC(=O)[C@H](C)NC(=O)[C@H](CS)NC(=O)[C@H](CC(=O)O)NC(=O)[C@H](CCC(N)=O)NC(=O)[C@H](CCC(=O)O)NC(=O)[C@H](CC(C)C)NC(=O)[C@H](CO)NC(=O)[C@H](CC(C)C)NC(=O)[C@H](CCCCN)NC(C)=O)[C@@H](C)O)[C@@H](C)CC)C(=O)N[C@@H](CC(N)=O)C(=O)N[C@@H](CC(N)=O)C(=O)N[C@@H](Cc1ccccc1)C(=O)N[C@@H](CCCCN)C(=O)N[C@@H](CC(N)=O)C(=O)N[C@H](C(=O)N[C@@H](CC(C)C)C(=O)N[C@@H](CCCNC(=N)N)C(=O)N[C@@H](CCC(=O)O)C(=O)N[C@@H](CCCCN)C(=O)N[C@@H](CCCNC(=N)N)C(=O)N[C@@H](CC(C)C)C(=O)N[C@@H](CCCNC(=N)N)C(=O)N[C@@H](CCC(N)=O)C(=O)N[C@@H](CCCCN)C(=O)N[C@@H](CCCCN)C(=O)N[C@@H](CC(C)C)C(=O)N[C@@H](CC(C)C)C(=O)N[C@@H](CCC(N)=O)C(=O)N[C@@H](CCC(=O)O)C(=O)N[C@@H](CC(C)C)C(=O)N[C@H](C(N)=O)C(C)C)C(C)C [Segment V709D] (Ac-KLSLEQDCAETIYLNKCINNFKNVLREKRLRQKKLLQELV-NH2; N-terminus and C-terminus assumed) |  | > 50
